Patent US4876280A, “Arylcyclohexane and arylcyclohexene analogs of mevalonolactone derivatives and their use” (Sandoz Pharm. Corp., priority 1988, dated 1989)
Like-named read-outs stand apart in the source and are kept apart here.

Key:
[1] = tested on: 3β-hydroxysterol synthesis; assay: Test C: In Vivo Cholesterol Biosynthesis Inhibition Test; set-up: species or system rat (male Wistar Royal Hart); details: for ED50: Rattus norvegicus, read-out: ED50 (50% inhibition of 3β-hydroxysterol synthesis)
Procedure: Test C. In Vivo Cholesterol Biosynthesis Inhibition Test:
In vivo studies utilize male Wistar Royal Hart rats weighing 150±20 g. which have been kept for 7-10 days on an altered light cycle (6:30 A.M.-6.30 P.M. dark) housed two per cage and fed powdered Purina Rat Chow and water ad libitum. Three hours before the diurnal maximum of cholesterol synthesis at mid-dark, the rats are administered the test substances dissolved or as a suspension in 0.5% carboxymethylcellulose in a volume of 1 ml./100 g. body weight. Controls receive vehicle alone. One hour after receiving the test substance, the rats are injected intraperitoneally with about 25 μCi/100 g. body weight of sodium [1-^14 C]acetate 1-3 mCi/mmol. Two hours after mid-dark, blood samples are obtained under sodium hexobarbitol anesthesia, and the serum separated by centrifugation. (The dosage of the test substance is 0.01-200 mg./kg. body weight.)
The [^14 C]digitonides are then counted by liquid scintillation spectrometry. After correcting for efficiencies, the results are calculated in nCi (nanocuries) of sterol formed per 100 ml. of serum. Inhibition of sterol synthesis is calculated from the reduction in the nCi of sterols formed from test groups compared to controls.
The ED50 is the dose of the test substances observed or calculated to produce a 50% inhibition of 3β-hydroxysterol synthesis.

HMG-CoA reductase = target: T1, HMG-CoA reductase (Rattus norvegicus, UniProt P51639); assay: Test A: In Vitro Microsomal Assay of HMG-CoA Reductase Inhibition; format: biochemical; details: rat liver microsomes, read-out: IC50 (50% inhibition of HMG-CoA reductase activity)
T1 construct: rat liver microsomal suspensions, freshly prepared from male Sprague-Dawley rats; from tissue; host or cells: liver microsomes of male Sprague-Dawley rats
T1 sequence (P51639 1-887): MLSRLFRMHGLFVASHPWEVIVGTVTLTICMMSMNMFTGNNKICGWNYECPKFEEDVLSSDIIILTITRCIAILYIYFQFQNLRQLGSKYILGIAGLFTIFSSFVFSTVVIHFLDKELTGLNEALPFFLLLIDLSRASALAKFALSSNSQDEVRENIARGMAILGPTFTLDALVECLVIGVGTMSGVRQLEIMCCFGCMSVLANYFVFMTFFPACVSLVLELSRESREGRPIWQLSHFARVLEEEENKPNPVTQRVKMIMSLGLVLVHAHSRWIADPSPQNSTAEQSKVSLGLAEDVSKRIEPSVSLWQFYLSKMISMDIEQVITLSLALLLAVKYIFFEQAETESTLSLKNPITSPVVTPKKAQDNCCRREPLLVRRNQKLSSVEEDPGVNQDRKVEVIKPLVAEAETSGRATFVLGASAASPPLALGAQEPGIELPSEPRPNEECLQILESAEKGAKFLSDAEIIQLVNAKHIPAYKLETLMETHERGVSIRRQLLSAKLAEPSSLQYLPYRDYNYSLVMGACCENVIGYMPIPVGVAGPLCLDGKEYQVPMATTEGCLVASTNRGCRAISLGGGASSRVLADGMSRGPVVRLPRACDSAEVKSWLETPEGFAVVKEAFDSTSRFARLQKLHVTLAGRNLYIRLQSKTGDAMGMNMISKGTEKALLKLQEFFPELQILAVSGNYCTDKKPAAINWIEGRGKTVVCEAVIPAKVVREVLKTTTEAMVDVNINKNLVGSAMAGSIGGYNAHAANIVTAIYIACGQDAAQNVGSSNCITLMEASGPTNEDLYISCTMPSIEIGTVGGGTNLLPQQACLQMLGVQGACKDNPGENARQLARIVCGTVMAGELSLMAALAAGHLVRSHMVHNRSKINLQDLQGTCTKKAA
Procedure: Test A. In Vitro Microsomal Assay of HMG-CoA Reductase Inhibition:
200 μl. aliquots (1.08-1.50 mg./ml.) of rat liver microsomal suspensions, freshly prepared from male Sprague-Dawley rats (150-225 g. body weight), in Buffer A with 10 mmol. dithiothreitol are incubated with 10 μl. of a solution of the test substance dissolved in dimethylacetamide and assayed for HMG-CoA reductase activity as described by Ackerman et al., J. Lipid Res. 18, 408-413 (1977), the concentration of the test substance in the assay system being 0.01-2,000 μmolar. In the assay the microsomes are the source of the HMG-CoA reductase enzyme which catalyzes the reduction of HMG-CoA to mevalonate. The assay employs a chloroform extraction to separate the product, [^14 C]-mevalonolactone, formed by the HMG-CoA reductase reaction from the substrate, [^14 C]HMG-CoA. [^3 H]mevalonolactone is added as an internal reference. Inhibition of HMG-CoA reductase is calculated from the decrease in specific activity [^14 C/^3 H]mevalonate) of test groups compared to controls.
IC50 is the concentration of the test substance in the assay system observed or calculated to produce a 50% inhibition of HMG-CoA reductase activity (Test A) or sterol biosynthesis (Test B).

[2] = tested on: sterol biosynthesis in Fu5AH rat hepatoma cell line; assay: Test B: In Vitro Cell Culture Cholesterol Biosynthesis Screen; format: cell-based; details: Fu5AH rat hepatoma cells, [14C]acetate, 3 hours, read-out: IC50 (50% inhibition of sterol biosynthesis)
Procedure: Test B. In Vitro Cell Culture Cholesterol Biosynthesis Screen:
The cell culture is prepared as follows: Stock monolayer cultures of the Fu5AH rat hepatoma cell line (originally obtained from G. Rothblat; see Rothblat, Lipids 9, 526-535 (1974) are routinely maintained in Eagle's Minimum Essential Medium (EMEM) supplemented with 10% fetal bovine serum (FBS) in 75 cm^2. tissue culture flasks. For these studies, when the cultures reach confluence, they are removed by mild enzymatic treatment with 0.25% trypsin in Hank's balanced salt solution (without calcium and magnesium). After centrifugation of the cell suspension and aspiration of the enzymatic solution, the cell pellet is resuspended in an appropriate volume of media for seeding into 60 mm. tissue culture dishes. The cultures are incubated at 37° C. in an atmosphere of high humidity and 5% carbon dioxide. When the cultures are confluent (approximately 5 days), they are ready for use. The culture media is aspirated from the dishes and replaced with 3 ml. of EMEM supplemented with 5 mg./ml. of delipidized serum protein (DLSP) prepared by the method of Rothblat et al., In Vitro 12, 554-447 (1976). […] Enhanced 3-hydroxy-3-methylglutaryl Coenzyme A reductase (HMG-CoA reductase) activity is measurable in the cells in response to the lack of exogenous sterol. Following approximately 24 hours incubation at 37° C. in the DLSP supplemented media, the assay is initiated by the addition of 3 μCi of [^14 C]acetate and the test substances solubilized in dimethylsulfoxide (DMSO) or distilled water. Solvent controls and compactin-treated controls are always prepared. Triplicate 60 mm. tissue culture dishes are run for each group. After 3 hours incubation at 37° C., the cultures are examined microscopically using an inverted phase contrast microscope. Notations are made of any morphological changes which may have occurred in the cultures. The media is aspirated and the cell layer is gently washed twice with 0.9% sodium chloride solution (saline). The cell layer is then harvested in 3 ml. of 0.9% saline by gentle scraping with a rubber policeman and transferred to a clean glass tube with Teflon lined cap. The dishes are rinsed with 3 ml. of 0.9% saline and rescraped, and the cells are combined with the first harvest. The tubes are centrifuged at 1500 r.p.m. for 10 minutes in an IEC PR-J centrifuge, and the supernatant is aspirated.
The cells are then extracted as follows: One ml. of 100% ethanol is added to the cell pellet followed by sonication for 10 seconds with a "LO" setting of 50 on a Bronwell Biosonik IV. One hundred μl. are taken for protein determination. One ml. of 15% potassium hydroxide (KOH) is added, and the samples are thoroughly vortexed. Saponification is accomplished by heating the ethanol-KOH treated samples at 60° C. for 60 minutes in a water bath. Following dilution of the samples with 2 ml. of distilled water, they are extracted three times with 7 ml. of petroleum ether. The petroleum ether extracts are then washed three times with 2 ml. of distilled water and finally taken to dryness under a stream of nitrogen.
The obtained samples are then analyzed by thin layer chromatography (TLC) as follows: Residues from the petroleum ether extraction are taken up in a small volume of hexane and spotted on silica gel 60 TLC plates (E. Merck). Development of the plates is carried out in a three phase solvent system consisting of 150 parts by volume hexane: 50 parts by volume diethyl ether: 5 parts by volume glacial acetic acid. Visualization is accomplished in an iodine vapor chamber. The plates are divided into five sections such that each section contains the molecules having the following approximate Rf value: section 1-0-0.4, section 12-0.4-0.55, section 3-0.55-0.7, section 4-0.7-0.9 and section 5-0.9-1.0. Section 2 contains the non-saponifiable sterols. The five sections of the TLC plates are scraped into scintillation vials. […]

[3] = Test C, male Wistar Royal Hart rats

CC[C@H](C)C(=O)O[C@H]1C[C@@H](C)C=C2C=C[C@H](C)[C@H](CC[C@@H]3C[C@@H](O)CC(=O)O3)[C@H]21 [Mevinolin, reference compound]
ED50 [1]: 0.41 mg/kg

C[C@@H]1C=C[C@H](C)[C@H](c2ccc(F)cc2)[C@H]1/C=C/[C@@H](O)C[C@@H](O)CC(=O)O [Example 5A, Sodium (E)-3R,5S-dihydroxy-7-[2'α,5'α-dimethyl-6'α-(4"-fluorophenyl)cyclohex-3'-en-1'βS-yl]hept-6-enoate]
IC50 (HMG-CoA reductase): 0.54 µM

CCOC(=O)CC(O)CC(O)/C=C/[C@@H]1[C@@H](c2cccc3ccccc23)[C@@H](C)C=C[C@H]1C (stereo partly drawn) [Example 6, Ethyl (E)-3,5-dihydroxy-7-(2'α,5'α-dimethyl-6'α-naphth-1"-ylcyclohex-3'-en-1'βS-yl)hept-6-enoate]
IC50 (HMG-CoA reductase): 5.57 µM

C[C@@H]1C=C[C@H](C)[C@@H](/C=C/C2CC(O)CC(=O)O2)[C@@H]1c1ccc(F)cc1 (stereo partly drawn) [Example 74]
IC50 [2]: 5.8 µM | ED50 [1, 3]: 20 mg/kg | IC50 (HMG-CoA reductase): 116 µM

C[C@@H]1C=C[C@H](C)[C@H](c2ccccc2)[C@H]1/C=C/C1CC(O)CC(=O)O1 (stereo partly drawn) [Example 79]
IC50 [2]: 4.8 µM | change in 3β-hydroxysterol synthesis ([1]; Test C, male Wistar Royal Hart rats, at 5.9 mg./kg.): -62% | IC50 (HMG-CoA reductase): 29 µM

C[C@@H]1C=C[C@H](C)[C@H](c2ccc(F)cc2)[C@H]1/C=C/[C@@H]1C[C@@H](O)CC(=O)O1 [Example 3A, (E)-Trans-6S-[2'-(2"α,5"α-Dimethyl-6"α-(4'"-fluorophenyl)cyclohex-3"-en-1"βS-yl)ethenyl]-4R-hydroxy-3,4,5,6-tetrahydro-2H-pyran-2-one]
IC50 (HMG-CoA reductase): 3.23 µM

CC[C@H](C)C(=O)O[C@H]1CCC=C2C=C[C@H](C)[C@H](CC[C@@H]3C[C@@H](O)CC(=O)O3)[C@H]21 [Compactin, reference compound]
IC50 [2]: 0.08 µM | ED50 [1, 3]: 3.5 mg/kg | IC50 (HMG-CoA reductase): 0.94 µM

C[C@@H]1C=C[C@H](C)[C@H](c2ccc(F)cc2)[C@H]1/C=C/C1CC(O)CC(=O)O1 (stereo partly drawn) [Example 3, (E)-6-[2'-(2"α,5"α-Dimethyl-6"α-(4'"-fluorophenyl)cyclohex-3"-en-1"βS-yl)ethenyl]-4-hydroxy-3,4,5,6-tetrahydro-2H-pyran-2-one]
IC50 [2]: 1.2 µM | ED50 [1, 3]: 2.4 mg/kg | IC50 (HMG-CoA reductase): 8.13 µM

C[C@@H]1CC[C@H](C)[C@H](c2ccc(F)cc2)[C@H]1CCC(O)CC(O)CC(=O)O (stereo partly drawn) [Example 85]
IC50 (HMG-CoA reductase): 7.2 µM

C[C@@H]1C=C[C@H](C)[C@H](c2ccc(F)cc2)[C@H]1/C=C/C(O)CC(O)CC(=O)O (stereo partly drawn) [Example 5, Sodium (E)-3,5-dihydroxy-7-[2'α,5'α-dimethyl-6'α-(4"-fluorophenyl)cyclohex-3'-en-1'βS-yl]hept-6-enoate]
IC50 [2]: 0.6 µM | ED50 [1, 3]: 2.07 mg/kg | IC50 (HMG-CoA reductase): 1.19 µM

CCOC(=O)CC(O)CC(O)/C=C/[C@@H]1[C@@H](c2ccc(F)cc2)[C@H](C)CC[C@H]1C(C)C (stereo partly drawn) [Example 86]
IC50 [2]: 5.4 µM | IC50 (HMG-CoA reductase): 141 µM

O=C1CC(O)CC(/C=C/[C@@H]2CC=CC[C@H]2c2ccc(Cl)cc2)O1 (stereo partly drawn) [Example 73]
IC50 (HMG-CoA reductase): 450 µM

O=C1CC(O)CC(/C=C/[C@H]2CC=CC[C@@H]2c2ccccc2)O1 (stereo partly drawn) [Example 67B]
IC50 (HMG-CoA reductase): 1370 µM
